Like-named read-outs stand apart in the source and are kept apart here. Bridge positions count the residues as written; N and C are the ends. Square brackets hold non-standard residues; d marks the D form. Peptide text beside a SMILES is read from it. Nle = CCCC[C@H](N)C(=O)O
Assays:
[1] = target: T1, human Kv1.3 voltage-gated K+ channel (Homo sapiens, UniProt P22001); assay: cell-based; conditions: inhibition of thallium flux, CHO-DUKX cells with human Kv1.3; read-out: IC50
T1 construct: host or cells: CHO-DUKX

Kv1.1 = target: T2, Kv1.1 (Homo sapiens, UniProt Q09470); assay: cell-based; conditions: for IC50: CHO cells, whole-cell patch clamp, read-out: Potency IC50 (nM) Kv1.1; for Selectivity Kv1.1/Kv1.3: ratio IC50[Kv1.1]/IC50[Kv1.3]
T2 construct: expressed in transfected cells; host or cells: Chinese Hamster Ovary (CHO)

Kv1.2 = target: T3, Kv1.2 (Homo sapiens, UniProt P16389); assay: cell-based; conditions: for IC50: CHO cells, whole-cell patch clamp, read-out: Potency IC50 (nM) Kv1.2
T3 construct: expressed in transfected cells; host or cells: Chinese Hamster Ovary (CHO)

Kv1.3 = target: T4, Kv1.3 (Homo sapiens, UniProt P22001); assay: cell-based; conditions: CHO cells, whole-cell patch clamp; read-out: Potency IC50 (nM) Kv1.3
T4 construct: expressed in transfected cells; host or cells: Chinese Hamster Ovary (CHO)

Kv1.6 = target: T5, Kv1.6 (Homo sapiens, UniProt P17658); assay: cell-based; conditions: for IC50: CHO cells, whole-cell patch clamp, read-out: Potency IC50 (nM) Kv1.6; for Selectivity Kv1.6/Kv1.3: ratio IC50[Kv1.6]/IC50[Kv1.3]
T5 construct: expressed in transfected cells; host or cells: Chinese Hamster Ovary (CHO)

[2] = test system: Human peripheral blood mononuclear cells (PBMCs); assay: IL-2 release from anti-CD3 stimulated human PBMCs (Example 4b); format: cell-based; conditions: geometric mean, at least 6 replicates, read-out: anti-CD3 PBMC/IL-2 IC50
Method: Human peripheral blood mononuclear cells (PBMCs) were used to assess the effects of Kv1.3 blockers on T-cell activation as determined by IL-2 release after stimulation with anti-CD3.
(§1) Human PBMCs were obtained from Precision for Medicine (Frederick, Md.). Cells from 5 donors were used. Plate-bound anti-CD3 was used to stimulate bulk T cells in the PBMC preparations. Briefly, 96-well plates were coated with anti-CD3 antibody for app. 16 hours at 5° C., using 50 μl of a 1 μg/ml anti-CD3 solution diluted in PBS. Thereafter the plates were washed twice.
Kv1.3 blockers were subsequently diluted in medium (RPMI 1640 with Glutamax-I containing, 10% v/v Fetal Bovine Serum, 1% v/v penicillin-streptomycin Solution) and added in a volume of 50 μl. The compounds indicated in Table 4b were used at concentrations ranging from […] to 1000 nM (half log dilutions, starting concentrations varying).
(§2) Finally, 50.000 PBMCs in the same medium were added to each well in a volume of 50 μl, giving a final volume of 100 μl per well. The plates were incubated for 20-24 hours in a 37° C./5% CO2 incubator. After centrifugation of the plates, 25 μl supernatant was transferred to IL-2 detection plates (MSD Human IL-2 Tissue Culture Kit, cat #K151AHB-2) and IL-2 was measures as described by the manufacturer (Meso Scale Discovery, Rockville, Md., USA).
Results are shown in Table 4b as geometric mean of IC50 values obtained from anti-CD3 stimulated human PBMC assays. All values derive from at least 6 replicates.

Rat whole blood = Rat whole blood (Rattus norvegicus, UniProt P15384)
[3] = test system: Human peripheral blood mononuclear cells (PBMCs); assay: IL-2 release from anti-CD3 stimulated human PBMCs (Example 4a); format: cell-based; conditions: geometric mean, at least 4 replicates, read-out: anti-CD3 PBMC/IL-2 IC50
Method: Human peripheral blood mononuclear cells (PBMCs) were used to assess the effects of Kv1.3 blockers on T-cell activation as determined by IL-2 (cytokine) release after stimulation with anti-CD3.
as §1, with “2 hrs” for “app. 16 hours”, “37°” for “5°”, “μL” for “μl”, “0.5 μg/mL” for “1 μg/ml”, “1×PBS.” for “PBS.”
as §2, with “1×10^5” for “50.000”, “PBMCs” for “PBMCs in the same medium”, “100 μL,” for “50 μl,”, “200 μL” for “100 μl”
Results are shown in Table 4a as geometric mean of IC50 values obtained from anti-CD3 stimulated human PBMC assays. All values derive from at least 4 replicates.

[4] = test system: delayed-type hypersensitivity (DTH) ear swelling response; format: in vivo, rat; conditions: CsA 10 mg/kg per os, +/- SD

T2 sequence (Q09470 whole entry): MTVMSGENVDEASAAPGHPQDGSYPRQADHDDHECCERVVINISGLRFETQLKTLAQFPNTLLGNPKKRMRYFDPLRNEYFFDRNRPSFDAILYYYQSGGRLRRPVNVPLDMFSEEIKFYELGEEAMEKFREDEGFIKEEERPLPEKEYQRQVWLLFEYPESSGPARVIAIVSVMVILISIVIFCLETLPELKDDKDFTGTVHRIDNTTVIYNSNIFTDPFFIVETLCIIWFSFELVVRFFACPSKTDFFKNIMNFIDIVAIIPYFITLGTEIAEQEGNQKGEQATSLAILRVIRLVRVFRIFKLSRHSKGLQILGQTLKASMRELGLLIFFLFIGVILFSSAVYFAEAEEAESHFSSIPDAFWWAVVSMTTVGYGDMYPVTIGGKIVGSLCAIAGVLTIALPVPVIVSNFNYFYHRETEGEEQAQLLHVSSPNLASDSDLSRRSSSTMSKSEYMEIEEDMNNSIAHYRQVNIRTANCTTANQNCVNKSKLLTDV
T3 sequence (P16389 whole entry): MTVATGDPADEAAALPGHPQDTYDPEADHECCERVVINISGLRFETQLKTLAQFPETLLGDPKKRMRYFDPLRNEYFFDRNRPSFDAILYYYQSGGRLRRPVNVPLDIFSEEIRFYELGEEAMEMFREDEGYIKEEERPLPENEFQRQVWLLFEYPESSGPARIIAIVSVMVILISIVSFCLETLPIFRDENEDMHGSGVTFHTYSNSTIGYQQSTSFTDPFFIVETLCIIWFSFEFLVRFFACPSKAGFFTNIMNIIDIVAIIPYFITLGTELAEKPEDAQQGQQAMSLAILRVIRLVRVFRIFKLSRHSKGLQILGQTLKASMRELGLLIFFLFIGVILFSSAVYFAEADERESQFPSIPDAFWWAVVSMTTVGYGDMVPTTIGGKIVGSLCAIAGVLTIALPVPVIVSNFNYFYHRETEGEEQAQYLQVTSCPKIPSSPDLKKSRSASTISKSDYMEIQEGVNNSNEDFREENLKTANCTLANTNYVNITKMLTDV
T1 sequence (P22001 whole entry): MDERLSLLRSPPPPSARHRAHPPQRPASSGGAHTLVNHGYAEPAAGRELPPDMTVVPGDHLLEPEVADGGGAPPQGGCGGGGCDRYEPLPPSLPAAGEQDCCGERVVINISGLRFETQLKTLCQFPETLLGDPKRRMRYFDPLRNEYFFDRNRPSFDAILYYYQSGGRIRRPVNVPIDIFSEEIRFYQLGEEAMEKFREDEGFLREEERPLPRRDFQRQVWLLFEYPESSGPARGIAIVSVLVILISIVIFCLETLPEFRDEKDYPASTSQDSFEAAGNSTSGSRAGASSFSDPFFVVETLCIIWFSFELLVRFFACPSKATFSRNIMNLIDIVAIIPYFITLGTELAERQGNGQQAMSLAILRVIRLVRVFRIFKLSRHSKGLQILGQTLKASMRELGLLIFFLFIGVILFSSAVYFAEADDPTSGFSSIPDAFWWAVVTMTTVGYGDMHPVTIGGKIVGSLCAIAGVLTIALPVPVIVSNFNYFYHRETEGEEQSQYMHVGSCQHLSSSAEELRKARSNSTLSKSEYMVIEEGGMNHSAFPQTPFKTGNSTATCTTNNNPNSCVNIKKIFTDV
T4 sequence (P22001 whole entry): as above
Chain of Rat whole blood (P15384 whole entry): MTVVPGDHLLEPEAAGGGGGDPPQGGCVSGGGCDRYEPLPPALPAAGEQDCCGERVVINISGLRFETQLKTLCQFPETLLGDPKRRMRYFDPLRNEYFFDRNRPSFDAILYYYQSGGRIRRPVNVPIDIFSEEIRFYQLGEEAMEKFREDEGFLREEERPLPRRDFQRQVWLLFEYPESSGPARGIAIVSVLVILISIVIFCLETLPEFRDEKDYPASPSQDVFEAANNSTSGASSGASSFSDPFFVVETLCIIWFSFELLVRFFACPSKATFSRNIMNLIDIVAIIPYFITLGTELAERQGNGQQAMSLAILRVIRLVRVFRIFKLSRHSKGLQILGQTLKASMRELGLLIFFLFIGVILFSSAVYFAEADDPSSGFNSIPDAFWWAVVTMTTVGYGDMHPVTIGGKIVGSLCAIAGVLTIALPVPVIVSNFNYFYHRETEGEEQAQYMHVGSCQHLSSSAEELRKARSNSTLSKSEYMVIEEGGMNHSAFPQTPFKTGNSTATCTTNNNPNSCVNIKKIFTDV
T5 sequence (P17658 whole entry): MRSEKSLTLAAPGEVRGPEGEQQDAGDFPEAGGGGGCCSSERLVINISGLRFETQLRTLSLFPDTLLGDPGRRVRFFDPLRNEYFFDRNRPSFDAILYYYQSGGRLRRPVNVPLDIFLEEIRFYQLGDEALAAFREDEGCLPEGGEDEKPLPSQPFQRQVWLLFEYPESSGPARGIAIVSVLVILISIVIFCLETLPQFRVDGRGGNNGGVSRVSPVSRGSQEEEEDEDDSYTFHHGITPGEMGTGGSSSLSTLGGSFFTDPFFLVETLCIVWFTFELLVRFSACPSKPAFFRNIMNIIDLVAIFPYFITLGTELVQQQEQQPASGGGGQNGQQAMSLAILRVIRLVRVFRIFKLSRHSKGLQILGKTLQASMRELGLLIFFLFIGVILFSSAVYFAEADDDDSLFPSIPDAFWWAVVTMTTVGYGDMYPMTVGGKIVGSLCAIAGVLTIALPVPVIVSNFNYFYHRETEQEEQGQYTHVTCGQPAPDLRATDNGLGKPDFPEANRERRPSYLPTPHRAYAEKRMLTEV

Row | Compound | IC50 [1] [nM] | IC50 (Kv1.1) [nM] | Selectivity Kv1.1/Kv1.3 (Kv1.1) | IC50 (Kv1.2) [nM] | IC50 (Kv1.3) [nM] | IC50 (Kv1.6) [nM] | Selectivity Kv1.6/Kv1.3 (Kv1.6) | IC50 [2] [nM] | IC50 (Rat whole blood) [nM] | IC50 [3] [nM] | % inhibition of ear thickness (AUC of Δ ear thickness 0-48 hours) ([4]; Exp #1, Kv1.3 blocker 70 nmol/kg SC 24 hrs prior to KLH challenge) | % inhibition of ear thickness (AUC of Δ ear thickness 0-48 hours) ([4]; Exp #2, Kv1.3 blocker 70 nmol/kg SC 24 hrs prior to KLH challenge) | % inhibition of ear thickness (AUC of Δ ear thickness 0-48 hours) ([4]; Exp #3, Kv1.3 blocker 50 nmol/kg SC 24 hrs prior to KLH challenge) | % inhibition of ear thickness (AUC of Δ ear thickness 0-48 hours) ([4]; Exp #4, Kv1.3 blocker 100 nmol/kg SC 24 hrs prior to KLH challenge) | Selectivity Kv1.2/Kv1.3 (Kv1.2; ratio IC50[Kv1.2]/IC50[Kv1.3])
1 | CC[C@H](C)[C@@H]1NC(=O)[C@H](C)NC(=O)[C@H](CCCCN)NC(=O)[C@H](CC(C)C)NC(=O)[C@@H]2CSSC[C@@H](C(=O)N[C@@H](Cc3ccc(O)cc3)C(=O)N3CCC[C@H]3C(=O)N[C@@H](CCCNC(=N)N)C(=O)O)NC(=O)[C@H](CCCCN)NC(=O)[C@@H]3CSSC[C@H](NC(=O)[C@H](CCC(=O)O)NC(=O)[C@H](C(C)C)NC(=O)[C@H](CO)NC(=O)[C@H](C)NC(=O)[C@H](CO)NC(=O)[C@@H](NC(=O)[C@H](CCCNC(=N)N)NC(=O)[C@H](CCSC)NC(=O)[C@H](CC(=O)O)NC(=O)[C@H](CCSC)NC(=O)[C@@H](N)CCC(N)=O)CSSC[C@H](NC(=O)[C@H](CCCCN)NC(=O)CNC(=O)[C@H](Cc4ccccc4)NC(=O)[C@H]([C@@H](C)CC)NC(=O)[C@H](CO)NC(=O)CNC1=O)C(=O)N[C@@H](CCSC)C(=O)N[C@@H](CC(N)=O)C(=O)N[C@@H](CCCCN)C(=O)N[C@@H](CCCCN)C(=O)N3)C(=O)N[C@@H](CCCCN)C(=O)N[C@@H](CCC(N)=O)C(=O)N[C@@H](CCCCN)C(=O)N2 [Compound 1] (H-QMDMRCSASVECKQKCLKAIGSIFGKCMNKKCKCYPR-OH; disulfide 6-27, 12-32, 16-34) | 0.24 | > 3000 | >7900 | 518 | 0.38 | > 3000 | >7900 | 0.09 | ≤ 1 |  |  |  |  |  | 
2 | CC[C@H](C)[C@@H]1NC(=O)[C@H](C)NC(=O)[C@H](CCCCN)NC(=O)[C@H](CC(C)C)NC(=O)[C@@H]2CSSC[C@@H](C(=O)N[C@@H](Cc3ccc(O)cc3)C(=O)N3CCC[C@H]3C(=O)N[C@@H](CCCNC(=N)N)C(N)=O)NC(=O)[C@H](CCCCN)NC(=O)[C@@H]3CSSC[C@H](NC(=O)[C@H](CCC(=O)O)NC(=O)[C@H](C(C)C)NC(=O)[C@H](CO)NC(=O)[C@H](C)NC(=O)[C@H](CO)NC(=O)[C@@H](NC(=O)[C@H](CCCNC(=N)N)NC(=O)[C@H](CCSC)NC(=O)[C@H](CC(=O)O)NC(=O)[C@H](CCSC)NC(=O)[C@@H](N)CC(N)=O)CSSC[C@H](NC(=O)[C@H](CCCCN)NC(=O)CNC(=O)[C@H](Cc4ccccc4)NC(=O)[C@H]([C@@H](C)CC)NC(=O)[C@H](CO)NC(=O)CNC1=O)C(=O)N[C@@H](CCSC)C(=O)N[C@@H](CC(N)=O)C(=O)N[C@@H](CCCCN)C(=O)N[C@@H](CCCCN)C(=O)N3)C(=O)N[C@@H](CCCCN)C(=O)N[C@@H](C(C)C)C(=O)N[C@@H](CCCCN)C(=O)N2 [Compound 17] (H-NMDMRCSASVECKVKCLKAIGSIFGKCMNKKCKCYPR-NH2; disulfide 6-27, 12-32, 16-34) | 0.14 | > 3000 | >7200 | 66 | 0.42 | 912 |  |  | ≤ 1 | 0.4 |  |  |  |  | 
3 | CCCC[C@H](NC(=O)[C@@H]1CCCN1)C(=O)N[C@@H](CC(=O)O)C(=O)N[C@@H](CCCC)C(=O)N[C@@H](CCCNC(=N)N)C(=O)N[C@H]1CSSC[C@@H]2NC(=O)[C@H](CCCCN)NC(=O)CNC(=O)[C@H](Cc3ccccc3)NC(=O)[C@H]([C@@H](C)CC)NC(=O)[C@H](CO)NC(=O)CNC(=O)[C@H]([C@@H](C)CC)NC(=O)[C@H](C)NC(=O)[C@H](CCCCN)NC(=O)[C@H](CC(C)C)NC(=O)[C@@H]3CSSC[C@@H](C(=O)N[C@@H](Cc4ccc(O)cc4)C(=O)N4CCC[C@H]4C(=O)N[C@@H](CCCNC(=N)N)C(N)=O)NC(=O)[C@H](CCCCN)NC(=O)[C@H](CSSC[C@H](NC(=O)[C@H](CCC(=O)O)NC(=O)[C@H](C(C)C)NC(=O)[C@H](CO)NC(=O)[C@H](C)NC(=O)[C@H](CO)NC1=O)C(=O)N[C@@H](CCCCN)C(=O)N[C@@H](CCC(N)=O)C(=O)N[C@@H](CCCCN)C(=O)N3)NC(=O)[C@H](CCCCN)NC(=O)[C@H](CCCCN)NC(=O)[C@H](CC(N)=O)NC(=O)[C@H](CCCC)NC2=O [Compound 41] (H-P[Nle]D[Nle]RCSASVECKQKCLKAIGSIFGKC[Nle]NKKCKCYPR-NH2; disulfide 6-27, 12-32, 16-34) | 0.15 | > 3000 | >17100 | 939 | 0.18 | > 3000 | >17100 | 0.03 | ≤ 1 |  | 46.9 (+/−10.9) % | 27.7 (+/−11.5) % | 22.2 (+/−11.1) % | 41.9 (+/−12.5) % | 
4 | CCCC[C@@H]1NC(=O)[C@@H]2CSSC[C@H](NC(=O)[C@H](CCCNC(=N)N)NC(=O)[C@H](CCCC)NC(=O)[C@H](CC(=O)O)NC(=O)[C@H](CCCC)NC(=O)[C@@H](N)CC(N)=O)C(=O)N[C@@H](CO)C(=O)N[C@@H](C)C(=O)N[C@@H](CO)C(=O)N[C@@H](C(C)C)C(=O)N[C@@H](CCC(=O)O)C(=O)N[C@H]3CSSC[C@H](NC(=O)[C@H](CCCCN)NC(=O)[C@H](CCCCN)NC(=O)[C@H](CC(N)=O)NC1=O)C(=O)N[C@@H](CCCCN)C(=O)N[C@H](C(=O)N[C@@H](Cc1ccc(O)cc1)C(=O)N1CCC[C@H]1C(=O)N[C@@H](CCCNC(=N)N)C(N)=O)CSSC[C@H](NC(=O)[C@H](CO)NC(=O)[C@H](CCC(N)=O)NC(=O)[C@H](CCCCN)NC3=O)C(=O)N[C@@H](CC(C)C)C(=O)N[C@@H](CCCCN)C(=O)N[C@@H](C)C(=O)N[C@@H]([C@@H](C)CC)C(=O)NCC(=O)N[C@@H](CO)C(=O)N[C@@H]([C@@H](C)CC)C(=O)N[C@@H](Cc1ccccc1)C(=O)NCC(=O)N[C@@H](CCCCN)C(=O)N2 [Compound 48] (H-N[Nle]D[Nle]RCSASVECKQSCLKAIGSIFGKC[Nle]NKKCKCYPR-NH2; disulfide 6-27, 12-32, 16-34) | 0.14 | > 3000 | >8200 | > 3000 | 0.37 | > 3000 | >8200 | 0.07 | ≤ 1 |  |  |  |  |  | >8200
5 | H-NMDMRCSASVECKQKCLKAIGSIFGKCMNKKCKCYPRRRTA-NH2 (disulfide 6-27, 12-32, 16-34) [Compound 23] | 0.055 | 626 |  | 28 | 0.15 | 215 |  | 0.06 | ≤ 1 |  |  |  |  |  | 

Source: US11780893B2, “Kv1.3 blockers” (Zealand Pharma A/S, priority 2019, dated 2023)
